These molecules were tested against T1, hCB1R (Homo sapiens, UniProt P21554) (assay: In vitro functional assay (FLIPR, intracellular Ca2+) with recombinant HEK293 cells, CB1). Settings: recombinant HEK293 cells expressing CB1 and Galpha16; 20 min preincubation, then reference agonist; Ca2+ change; read-out: hCB1R: FLIPR; IC50.
T1 sequence (P21554 whole entry): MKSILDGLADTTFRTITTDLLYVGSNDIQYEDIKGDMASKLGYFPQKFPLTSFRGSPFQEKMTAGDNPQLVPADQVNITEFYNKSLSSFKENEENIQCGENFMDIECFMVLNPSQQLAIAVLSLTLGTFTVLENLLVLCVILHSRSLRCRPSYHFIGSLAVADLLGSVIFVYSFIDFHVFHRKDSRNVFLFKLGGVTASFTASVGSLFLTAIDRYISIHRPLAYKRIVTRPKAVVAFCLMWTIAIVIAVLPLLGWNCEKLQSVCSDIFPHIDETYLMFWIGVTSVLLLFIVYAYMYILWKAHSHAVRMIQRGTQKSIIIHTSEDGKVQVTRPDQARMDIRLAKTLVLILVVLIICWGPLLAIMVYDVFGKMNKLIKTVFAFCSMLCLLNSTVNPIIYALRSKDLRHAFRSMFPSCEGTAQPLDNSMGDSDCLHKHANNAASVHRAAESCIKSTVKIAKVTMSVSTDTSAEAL
Format: cell-based
Parameters: expressed in transfected cells; host or cells: HEK293
Source text: In Vitro Functional Assays with Recombinant Cells:

SMILES | IC50 [µM]
CC(C)(C)Oc1ncc(Nc2ccccc2CN2C(=O)N(c3ccc(C#N)c(C(F)(F)F)c3)C(=O)C2(C)C)c(OC(C)(C)C)n1 [Example 208, 4-{3-[2-(2,4-di-tert-butoxypyrimidin-5-ylamino)benzyl]-4,4-dimethyl-2,5-dioxoimidazolidin-1-yl}-2-trifluoromethylbenzonitrile] | 0.013
CC1(C)C(=O)N(c2ccc(C#N)c(C(F)(F)F)c2)C(=O)N1Cc1ccccc1Nc1ccc2cc(C(=O)O)ccc2c1 [Example 209, 6-{2-[3-(4-cyano-3-trifluoromethylphenyl)-5,5-dimethyl-2,4-dioxoimidazolidin-1-ylmethyl]phenylamino}naphthalene-2-carboxylic acid] | 0.062
CC1(C)C(=O)N(c2ccc(F)c(C(F)(F)F)c2)C(=O)N1Cc1ccc(F)cc1Nc1ccc(S(C)(=O)=O)cc1 [Example 213, 1-[4-fluoro-2-(4-methanesulfonylphenylamino)benzyl]-3-(4-fluoro-3-trifluoromethylphenyl)-5,5-dimethylimidazolidine-2,4-dione] | 0.117
CC(C)(C)c1cc(N2C(=O)N(Cc3ccc(F)cc3Nc3ccc(F)cc3F)C(C)(C)C2=O)ccc1C#N [Example 221, 2-tert-butyl-4-{3-[2-(2,4-difluorophenylamino)-4-fluorobenzyl]-4,4-dimethyl-2,5-dioxoimidazolidin-1-yl}benzonitrile] | 0.01
CC1(C)C(=O)N(c2ccc(C#N)c(-c3ccc(Cl)cc3)c2)C(=O)N1Cc1ccc(F)cc1Nc1ccc(C(=O)O)cc1 [Example 228, 4-{2-[3-(4′-chloro-6-cyanobiphenyl-3-yl)-5,5-dimethyl-2,4-dioxoimidazolidin-1-ylmethyl]-5-fluorophenylamino}benzoic acid] | 0.061
COC(=O)C(Cc1ccc(Nc2ccccc2CN2C(=O)N(c3ccc(C#N)c(C(F)(F)F)c3)C(=O)C2(C)C)cc1)C(=O)OC [Example 232, Dimethyl 2-(4-{2-[3-(4-cyano-3-trifluoromethylphenyl)-5,5-dimethyl-2,4-dioxoimidazolidin-1-ylmethyl]phenylamino}benzyl)malonate] | 0.112
CC(C(=O)O)(C(=O)O)c1ccc(Nc2ccccc2CN2C(=O)N(c3ccc(C#N)c(C(F)(F)F)c3)C(=O)C2(C)C)cc1 [Example 233, 2-(4-{2-[3-(4-Cyano-3-trifluoromethylphenyl)-5,5-dimethyl-2,4-dioxoimidazolidin-1-ylmethyl]phenylamino}phenyl)-2-methylmalonic acid] | 0.022
CC1(C)C(=O)N(c2ccc(C#N)c(C(F)(F)F)c2)C(=O)N1Cc1ccccc1Nc1ccc(C(C(=O)O)C(=O)O)cc1 [Example 238, 2-(4-{2-[3-(4-cyano-3-trifluoromethylphenyl)-5,5-dimethyl-2,4-dioxoimidazolidin-1-ylmethyl]phenylamino}phenyl)malonic acid] | 0.01
CC1(C)C(=O)N(c2ccc(F)c(C(F)(F)F)c2)C(=O)N1Cc1ccc(F)cc1Nc1ccc2c(c1)C(=O)CCO2 [Example 239, 1-[4-fluoro-2-(4-oxochroman-6-ylamino)benzyl]-3-(4-fluoro-3-trifluoromethylphenyl)-5,5-dimethylimidazolidine-2,4-dione] | 0.103
CC1(C)C(=O)N(c2ccc(F)c(C(F)(F)F)c2)C(=O)N1Cc1ccc(F)cc1Nc1ccc(NS(C)(=O)=O)cc1 [Example 240, N-(4-{5-Fluoro-2-[3-(4-fluoro-3-trifluoromethylphenyl)-5,5-dimethyl-2,4-dioxoimidazolidin-1-ylmethyl]phenylamino}phenyl)methanesulfonamide] | 0.011
CC1(C)C(=O)N(c2ccc(C#N)c(C(F)(F)F)c2)C(=O)N1Cc1ccccc1Nc1ccc(C(=O)O)c(O)c1 [Example 243] | 0.099
CC1(C)C(=O)N(c2ccc(C#N)c(C(F)(F)F)c2)C(=O)N1Cc1ccccc1Nc1cnc(O)nc1O [Example 246, 4-{3-[2-(2,4-Dihydroxypyrimidin-5-ylamino)benzyl]-4,4-dimethyl-2,5-dioxoimidazolidin-1-yl}-2-trifluoromethylbenzonitrile] | 0.007
CC1(C)C(=O)N(c2ccc(C#N)c(-c3ccc(F)cc3)c2)C(=O)N1Cc1ccc(F)cc1Nc1ccc(F)cc1F [Example 253, 5-{3-[2-(2,4-Difluorophenylamino)-4-fluorobenzyl]-4,4-dimethyl-2,5-dioxoimidazolidin-1-yl}-4′-fluorobiphenyl-2-carbonitrile] | 0.029
CC1(C)C(=O)N(c2ccc(F)c(C(F)(F)F)c2)C(=O)N1Cc1ccc(F)cc1Nc1ccc(F)nc1 [Example 254, 1-[4-Fluoro-2-(6-fluoropyridin-3-ylamino)benzyl]-3-(4-fluoro-3-trifluoromethylphenyl)-5,5-dimethylimidazolidine-2,4-dione] | 0.002
COC(=O)c1ccc(Nc2cc(F)ccc2CN2C(=O)N(c3ccc(F)c(C(F)(F)F)c3)C(=O)C2(C)C)cn1 [Example 255, Methyl 5-{5-fluoro-2-[3-(4-fluoro-3-trifluoromethylphenyl)-5,5-dimethyl-2,4-dioxoimidazolidin-1-ylmethyl]phenylamino}pyridine-2-carboxylate] | 0.028
CC1(C)C(=O)N(c2ccc(C#N)c(-c3ccc(F)cc3)c2)C(=O)N1Cc1ccc(F)cc1Nc1ccc(C(=O)O)cc1 [Example 258, 4-{2-[3-(6-Cyano-4′-fluorobiphenyl-3-yl)-5,5-dimethyl-2,4-dioxoimidazolidin-1-ylmethyl]-5-fluorophenylamino}benzoic acid] | 0.031

Each molecule was assayed against T1, hCB1R (assay: Binding to the CB1 receptor ([3H]-SR141716A displacement)). Settings: not given.
Procedure: Binding to the CB1 Receptor:
Test compounds: The compounds (3 μl, 10 mM, 100% DMSO), pipetted into 96-well PP microtiter plates, were diluted with 27 μl of 100% DMSO (dimethyl sulfoxide). Proceeding from this solution, further 3-fold dilution steps were undertaken by transferring 10 μl in each case to a new PP microtiter plate and adding a further 20 μl of 100% DMSO. In each case 6 μl of these solutions were transferred into new 96-well PP microtiter plates and made up with 144 μl of assay buffer. The end concentrations ranged from 10 μM to 0.005 μM. Negative control: AM 251, dissolved in assay buffer with 1% DMSO, was added to the dilution series in the microtiter plates as a control. The end concentration was 1 μM. Blank control: assay buffer with 1% DMSO was added to the dilution series of the microtiter plates as a blank control.
Summary of the Assay Parameters:
High control: ^3H binding without addition of the compound
Low control: ^3H binding in the presence of 1 μM AM 251
The values were calculated using the corrected raw data.
The values reported were obtained as average values of a double determination. The IC50 values were calculated from the measurements with the program Xlfit, formula 205. Ki values were obtained from the IC50 and Kd values utilizing the Cheng-Prusoff equation: […]
Literature: Cheng, Y.-C., and Prusoff, W. H. (1973) Biochem. Pharmacol 22, 3099-3108

SMILES | Ki [µM]
COc1ccc(Nc2ccccc2)c(CN2C(=O)N(c3ccc(C#N)c(C(F)(F)F)c3)C(=O)C2(C)C)c1 [Example 6, 4-[3-(5-Methoxy-2-phenylaminobenzyl)-4,4-dimethyl-2,5-dioxoimidazolidin-1-yl]-2-trifluoromethylbenzonitrile] | 0.021
COc1ccc(Nc2ccc(F)cc2)c(CN2C(=O)N(c3ccc(C#N)c(C(F)(F)F)c3)C(=O)C2(C)C)c1 [Example 7, 4-{3-[2-(4-fluorophenylamino)-5-methoxybenzyl]-4,4-dimethyl-2,5-dioxoimidazolidin-1-yl}-2-trifluoromethylbenzonitrile] | 0.015
COc1ccc(Nc2ccc(C(F)(F)F)cc2)c(CN2C(=O)N(c3ccc(C#N)c(C(F)(F)F)c3)C(=O)C2(C)C)c1 [Example 8, 4-{3-[5-methoxy-2-(4-trifluoromethylphenylamino)benzyl]-4,4-dimethyl-2,5-dioxoimidazolidin-1-yl}-2-trifluoromethylbenzonitrile] | 0.015
COc1ccc(Nc2ccc(Cl)cc2)c(CN2C(=O)N(c3ccc(C#N)c(C(F)(F)F)c3)C(=O)C2(C)C)c1 [Example 9, 4-{3-[2-(4-chlorophenylamino)-5-methoxybenzyl]-4,4-dimethyl-2,5-dioxoimidazolidin-1-yl}-2-trifluoromethylbenzonitrile] | 0.013
COc1ccc(Nc2ccc(C#N)c(C(F)(F)F)c2)c(CN2C(=O)N(c3ccc(C#N)c(C(F)(F)F)c3)C(=O)C2(C)C)c1 [Example 10, 4-{3-[2-(4-cyano-3-trifluoromethylphenylamino)-5-methoxybenzyl]-4,4-dimethyl-2,5-dioxoimidazolidin-1-yl}-2-trifluoromethylbenzonitrile] | 0.024
CC1(C)C(=O)N(c2ccc(C#N)c(C(F)(F)F)c2)C(=O)N1Cc1ccccc1Nc1ccc(OC(F)(F)F)cc1 [Example 12, 4-{3-[2-(4-trifluoromethoxy-phenylamino)benzyl]-4,4-dimethyl-2,5-dioxoimidazolidin-1-yl}-2-trifluoromethylbenzonitrile] | 0.0009
CC1(C)C(=O)N(c2ccc(C#N)c(C(F)(F)F)c2)C(=O)N1Cc1ccccc1Nc1ccc(Cl)cc1Cl [Example 13, 4-{3-[2-(2,4-dichlorophenylamino)benzyl]-4,4-dimethyl-2,5-dioxoimidazolidin-1-yl}-2-trifluoromethylbenzonitrile] | 0.0009
CC1(C)C(=O)N(c2ccc(C#N)c(C(F)(F)F)c2)C(=O)N1Cc1cc(F)ccc1Nc1ccc(F)cc1 [Example 15, 4-{3-[5-Fluoro-2-(4-fluorophenylamino)benzyl]-4,4-dimethyl-2,5-dioxoimidazolidin-1-yl}-2-trifluoromethylbenzonitrile] | 0.002
CC1(C)C(=O)N(c2ccc(C#N)c(C(F)(F)F)c2)C(=O)N1Cc1cc(F)ccc1Nc1ccc(Cl)cc1 [Example 16, 4-{3-[2-(4-chlorophenylamino)-5-fluorobenzyl]-4,4-dimethyl-2,5-dioxoimidazolidin-1-yl}-2-trifluoromethylbenzonitrile] | 0.002
CC1(C)C(=O)N(c2ccc(C#N)c(C(F)(F)F)c2)C(=O)N1Cc1cc(C(F)(F)F)ccc1Nc1ccc(F)cc1 [Example 17, 4-{3-[2-(4-Fluorophenylamino)-5-trifluoromethylbenzyl]-4,4-dimethyl-2,5-dioxoimidazolidin-1-yl}-2-trifluoromethylbenzonitrile] | 0.003
CC1(C)C(=O)N(c2ccc(C#N)c(C(F)(F)F)c2)C(=O)N1Cc1cc(F)ccc1Nc1ccccc1 [Example 18, 4-[3-(5-fluoro-2-phenylaminobenzyl)-4,4-dimethyl-2,5-dioxoimidazolidin-1-yl]-2-trifluoromethylbenzonitrile] | 0.005

Reference: patent US7759366B2 (Sanofi-Aventis, priority 2006, dated 2010)
